The results in this text go back to US9775335B2, “Durable coating-embedded pesticides with peel and stick mosquito treatment of containers” (University of Florida Research Foundation, Inc., priority 2013, dated 2017).

SMILES strings stand for the structures.

Holding throughout (assay type): in vivo
Test [1] has as its system mosquito larvae. Nature of the test: Mosquito larval mortality with coating-embedded larvicide, 0-week and 20-week aging (FIGS. 17-18). An excerpt:
FIG. 17 is a graph of mosquito larval mortality after 0-week aging with the average live mosquitoes on the vertical axis versus exposure time on the horizontal axis.
FIG. 18 is a graph of mosquito larval mortality after 20-week aging with the average live mosquitoes on the vertical axis versus exposure time on the horizontal axis.
FIG. 17 is a graph of mosquito larval mortality over 0-week aging with amount of mosquitoes on the vertical axis versus exposure time on the horizontal axis.
FIG. 18 is a graph of mosquito larval mortality over 20-week aging on the vertical axis versus exposure time on the horizontal axis.
By embedding the larvicide pyriproxyfen in a coating, the mosquito killing action is protected from degradation for more than 20 weeks.

In test [2] the test system is mosquito larvae. Put plainly: Adult mosquito emergence, larvicide embedded in different coatings at different rates (FIG. 23). An excerpt:
Referring to FIG. 23, three different coating were used to embed the larvicide pyriproxyfen at 3 different rates. Coatings were applied to plastic containers that were filled with water, before mosquito larvae were transferred to these containers.
Several different formulae (polycrylic, Polyurethane and Latex paint) have been tested as coatings for the larvicide. All coatings performed well in preventing adult emergence from larvae added to water-holding containers coated internally with the coating-embedded larvicide even with 0.0001% of the active ingredient in the coating. Water treated with 0.01% rate is considered potable by the World Health Organization (WHO).

Test [3] has as its system mosquito larvae. Put plainly: Adult mosquito emergence after high volume washing of coated containers (FIG. 24). Particulars: embedded in polycrylic and polyurethane coatings; washed with tap water 5×, 20×, 50× container volume, refilled with fresh water. As to the method: Referring to FIG. 24, two of the coating tested previously (refer to FIG. 23) were also tested for durability under high volume washing to see if they could stand under heavy rains. The coatings applied to plastic containers were subject to continuous washing with tap water for total volumes equivalent to 5×, 20×, and 50× the container volumes. After wards the containers were refilled with fresh water and mosquito larvae were added to the water. Adult emergence from the larvae was only observed in containers with coatings that contained no embedded larvicide. […] Coatings prevent larvicide washing off, with up to 50 times the volume of water as contained in the ovitrap. Most larvicides are applied to water and disappear when containers are emptied and re filled either naturally by rain action or by other means. The coating constantly treats new water put in containers with enough larvicide to preserve the mosquito-killing action. Both polycrylic and polyurethane protect the action of pyriproxyfen larvicide when containers coated with these materials are subjected to washing.

`CC(COc1ccc(Oc2ccccc2)cc1)Oc1ccccn1` (centres unmarked) [pyriproxyfen, Pyriproxyfen]: the “time for which the mosquito killing action is protected from degradation” value with mosquito larvae [1] (larvicide embedded in a coating) was “more than 20 weeks”. Moreover, the “mosquito larval mortality / prevention of mosquito emergence” value in the test on mosquito larvae [1] (water in contact with coating-embedded larvicide or larvicide applied directly to container, new material or aged 20 weeks) was “mosquito larvae start to die as they reach the pupal stage”. The adult mosquito emergence entry with mosquito larvae [2] (embedded in three different coatings at 3 rates, applied to plastic containers filled with water) is “no emergence of mosquitoes even at low pyriproxyfen content”; in the test on mosquito larvae [2] (water standard (no coating), 3 rates) it was “mosquito emergence was only inhibited at the high pyriproxyfen level”. In addition, the “adult mosquito emergence after washing” value in the test on mosquito larvae [3] is on record as “prevented the emergence of adults”.
